Assay results taken from patent US12528786B2, “Plasma kallikrein inhibitors” (Merck Sharp & Dohme LLC, priority 2020, dated 2026).

Molecular target: T1, Human plasma kallikrein (Homo sapiens, UniProt P03952)
T1 construct: yields a heavy chain (371 amino acids) and a light chain (248 amino acids); purchased Enzyme Research Laboratories
Experiment: Kallikrein Assay (fluorogenic substrate hydrolysis, AFC release)
Format: biochemical
Settings: purified Human plasma kallikrein 0.5 nM; substrate Acetyl-K—P—R-AFC 100 mM; 50 mM HEPES pH 7.4
Method in brief: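 Purified human plasma kallikrein (0.5 nM final) with Acetyl-K-P-R-AFC substrate (final ≤0.2 Km) in 50 mM HEPES pH 7.4, 150 mM NaCl, 5 mM CaCl2, 0.1% PEG 8000, after enzyme–inhibitor equilibration; room temperature or 37° C. AFC fluorescence (405 Ex/510 Em nm) under linear conditions; IC50 by four-parameter fit, Ki via Cheng-Prusoff.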

T1 sequence (P03952 391-638 limits assumed): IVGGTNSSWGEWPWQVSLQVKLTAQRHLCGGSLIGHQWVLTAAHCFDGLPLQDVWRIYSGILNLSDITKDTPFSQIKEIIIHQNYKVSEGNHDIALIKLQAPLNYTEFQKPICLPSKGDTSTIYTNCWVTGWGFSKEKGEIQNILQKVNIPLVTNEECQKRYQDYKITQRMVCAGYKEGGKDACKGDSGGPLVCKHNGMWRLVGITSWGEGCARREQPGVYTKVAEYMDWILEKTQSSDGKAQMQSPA
T1 sequence (P03952 20-390 partner limits assumed): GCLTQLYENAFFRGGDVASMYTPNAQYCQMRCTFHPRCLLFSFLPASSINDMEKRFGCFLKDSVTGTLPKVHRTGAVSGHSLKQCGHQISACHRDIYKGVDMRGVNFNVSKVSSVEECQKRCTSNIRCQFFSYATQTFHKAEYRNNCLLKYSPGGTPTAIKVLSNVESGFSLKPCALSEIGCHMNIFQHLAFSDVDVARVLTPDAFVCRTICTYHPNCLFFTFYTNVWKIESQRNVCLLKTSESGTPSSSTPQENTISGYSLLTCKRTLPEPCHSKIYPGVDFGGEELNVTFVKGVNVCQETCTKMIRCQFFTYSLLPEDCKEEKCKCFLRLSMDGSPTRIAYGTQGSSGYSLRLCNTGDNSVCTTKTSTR

SMILES | IC50 [nM]
Cc1c([C@H](C)n2cc(C(=O)NC3CC(c4cccc(Cl)c4)C3O)nn2)cnc(N2C[C@H]3C[C@H]3C2=O)c1C (single isomer, unassigned) [Example 151, N-((1R,2R,3R or 1S,2S,3S))-3-(3-chlorophenyl)-2-hydroxycyclobutyl)-1-((S)-1-(4,5-dimethyl-6-((1R,5S)-2-oxo-3-azabicyclo[3.1.0]hexan-3-yl)pyridin-3-yl)ethyl)-1H-1,2,3-triazole-4-carboxamide] | 1.1
Cc1c([C@H](C)n2cc(C(=O)NC3CC(c4cccc(Cl)c4)C3O)nn2)cnc(N2C[C@H]3C[C@H]3C2=O)c1C (single isomer, unassigned) [Example 152, N-((1S,2S,3S or 1R,2R,3R))-3-(3-chlorophenyl)-2-hydroxycyclobutyl)-1-((S)-1-(4,5-dimethyl-6-((1R,5S)-2-oxo-3-azabicyclo[3.1.0]hexan-3-yl)pyridin-3-yl)ethyl)-1H-1,2,3-triazole-4-carboxamide] | 78
N#Cc1ccc(Cl)cc1[C@H]1C[C@@H](NC(=O)c2cn(C(CO)c3ccc(N4C[C@H]5C[C@H]5C4=O)nc3)nn2)C1 (single isomer, unassigned) [Example 154] | 29.6
N#Cc1ccc(Cl)cc1[C@H]1C[C@@H](NC(=O)c2cn([C@H](CO)c3ccc(N4C[C@H]5C[C@H]5C4=O)nc3)nn2)C1 (single isomer, unassigned) [Example 155] | 28
Cc1cc([C@@](C)(O)c2cc(C(=O)N[C@H]3C[C@@H](c4cc(Cl)ccc4C#N)C3)no2)cnc1N1C[C@H]2C[C@H]2C1=O (single isomer, unassigned) [Example 156] | 0.7
Cc1cc([C@](C)(O)c2cc(C(=O)N[C@H]3C[C@@H](c4cc(Cl)ccc4C#N)C3)no2)cnc1N1C[C@H]2C[C@H]2C1=O (single isomer, unassigned) [Example 157] | 24
Cc1c([C@@H](C)n2cc(C(=O)N[C@H]3C[C@@H](c4cc(Cl)ccc4C#N)C3)nn2)nc(N2C[C@H]3C[C@H]3C2=O)n1C (single isomer, unassigned) [Example 161] | 95.9
Cc1c([C@H](C)n2cc(C(=O)N[C@H]3C[C@@H](c4cc(Cl)ccc4C#N)C3)nn2)nc(N2C[C@H]3C[C@H]3C2=O)n1C (single isomer, unassigned) [Example 162] | 3.7
Cc1c([C@@H](C)n2cc(C(=O)NC3CC(c4cc(Cl)ccc4C#N)C3)nn2)cnc(N2C[C@H]3C[C@H]3C2=O)c1O (single isomer, unassigned) [Example 163] | 1.1
Cc1c(N2C[C@H]3C[C@H]3C2=O)ncc([C@@H](C)n2cc(C(=O)NC3CC(c4cc(Cl)ccc4C#N)C3)cn2)c1F (single isomer, unassigned) [Example 165] | 1
Cc1c(N2C[C@H]3C[C@H]3C2=O)ncc(C(C)n2cc(C(=O)NC3CC(c4cc(Cl)ccc4C#N)C3)cn2)c1F (single isomer, unassigned) [Example 166] | 1.2
Cc1c([C@@H](C)n2cc(C(=O)NC3CC(c4cc(Cl)ccc4C#N)C3)cn2)cnc(N2C[C@H]3C[C@H]3C2=O)c1Cl (single isomer, unassigned) [Example 167] | 1.9
Cc1c(C(C)n2cc(C(=O)NC3CC(c4cc(Cl)ccc4C#N)C3)cn2)cnc(N2C[C@H]3C[C@H]3C2=O)c1Cl (single isomer, unassigned) [Example 168] | 0.1
Cc1cc(N2C[C@H]3C[C@H]3C2=O)ncc1[C@@H](C)n1cc(C(=O)NC2CC(c3cc(Cl)ccc3C#N)C2)c([C@H](C)O)n1 (single isomer, unassigned) [Example 169] | 0.8
Cc1cc(N2C[C@H]3C[C@H]3C2=O)ncc1[C@@H](C)n1cc(C(=O)NC2CC(c3cc(Cl)ccc3C#N)C2)c(C(C)O)n1 (single isomer, unassigned) [Example 170] | 0.7
Cc1cc(N2C[C@H]3C[C@H]3C2=O)ncc1C(C)n1cc(C(=O)NC2CC(c3cc(Cl)ccc3C#N)C2)c(C(C)O)n1 (single isomer, unassigned) [Example 171] | 5.6
N#Cc1ccc(Cl)cc1[C@H]1C[C@@H](NC(=O)c2cnn(Cc3cnc(N4C[C@@H]5C[C@@H]5C4=O)nc3)c2)C1 (stereo in doubt) [Example 1, N-((cis)-3-(5-chloro-2-cyanophenyl)cyclobutyl)-1-((2-((1S,5R)-2-oxo-3-azabicyclo[3.1.0]hexan-3-yl)pyrimidin-5-yl)methyl)-1H-pyrazole-4-carboxamide] | 8.6
Cc1cc(N2C[C@H]3C[C@H]3C2=O)ncc1C(C)n1cc(C(=O)NC2CC(c3cc(Cl)ccc3C#N)C2)c([C@H](C)O)n1 (stereo in doubt) [Example 172, N-((cis)-3-(5-chloro-2-cyanophenyl)cyclobutyl)-3-((S)-1-hydroxyethyl)-1-((S)-1-(4-methyl-6-((1R,5S)-2-oxo-3-azabicyclo[3.1.0]hexan-3-yl)pyridin-3-yl)ethyl)-1H-pyrazole-4-carboxamide] | 11.1
N#Cc1ccc(Cl)cc1[C@H]1C[C@@H](NC(=O)c2cnn(Cc3cnc(N4C[C@H]5C[C@H]5C4=O)nc3)c2)C1 [Example 2, N-((cis)-3-(5-chloro-2-cyanophenyl)cyclobutyl)-1-((2-((1R,5S)-2-oxo-3-azabicyclo[3.1.0]hexan-3-yl)pyrimidin-5-yl)methyl)-1H-pyrazole-4-carboxamide] | 10.6
Cc1cc(N2C[C@H]3C[C@H]3C2=O)ncc1Cn1cc(C(=O)N[C@H]2C[C@@H](c3cc(Cl)ccc3C#N)C2)cn1 [Example 37, N-((cis)-3-(5-chloro-2-cyanophenyl)cyclobutyl)-1-((4-methyl-6-((1R,5S)-2-oxo-3-azabicyclo[3.1.0]hexan-3-yl)pyridin-3-yl)methyl)-1H-pyrazole-4-carboxamide] | 0.7
Cc1cc(N2C[C@H]3C[C@H]3C2=O)ncc1Cn1cc(C(=O)N[C@H]2C[C@@H](c3cc(Cl)ccc3C#N)C2)c(C(F)F)n1 [Example 38, N-((cis)-3-(5-chloro-2-cyanophenyl)cyclobutyl)-3-(difluoromethyl)-1-((4-methyl-6-((1R,5S)-2-oxo-3-azabicyclo[3.1.0]hexan-3-yl)pyridin-3-yl)methyl)-1H-pyrazole-4-carboxamide] | 1.1
Cc1cc(C(C)(C)n2cc(C(=O)N[C@H]3C[C@@H](c4cc(Cl)ccc4C#N)C3)nn2)cnc1N1C[C@H]2C[C@H]2C1=O [Example 61, N-((cis)-3-(5-chloro-2-cyanophenyl)cyclobutyl)-1-(2-(5-methyl-6-((1R,5S)-2-oxo-3-azabicyclo[3.1.0]hexan-3-yl)pyridin-3-yl)propan-2-yl)-1H-1,2,3-triazole-4-carboxamide] | 10.1
N#Cc1ccc(Cl)cc1[C@H]1C[C@@H](NC(=O)c2cn(Cc3cnc(N4C[C@H]5C[C@H]5C4=O)nc3)nn2)C1 [Example 79, N-((cis)-3-(5-chloro-2-cyanophenyl)cyclobutyl)-1-((2-((1R,5S)-2-oxo-3-azabicyclo[3.1.0]hexan-3-yl)pyrimidin-5-yl)methyl)-1H-1,2,3-triazole-4-carboxamide] | 16.1
Cc1c([C@H](C)n2cc(C(=O)N[C@H]3C[C@@](C)(c4cc(Cl)ccc4C#N)C3)nn2)cnc(N2C[C@H]3C[C@H]3C2=O)c1C [Example 141, N-((cis)-3-(5-chloro-2-cyanophenyl)-3-methylcyclobutyl)-1-((S)-1-(4,5-dimethyl-6-((1R,5S)-2-oxo-3-azabicyclo[3.1.0]hexan-3-yl)pyridin-3-yl)ethyl)-1H-1,2,3-triazole-4-carboxamide] | 0.2
Cc1c([C@H](C)n2cc(C(=O)N[C@H]3C[C@@](C)(c4cc(Cl)ccc4C(N)=O)C3)nn2)cnc(N2C[C@H]3C[C@H]3C2=O)c1C [Example 142, N-((cis)-3-(2-carbamoyl-5-chlorophenyl)-3-methylcyclobutyl)-1-((S)-1-(4,5-dimethyl-6-((1R,5S)-2-oxo-3-azabicyclo[3.1.0]hexan-3-yl)pyridin-3-yl)ethyl)-1H-1,2,3-triazole-4-carboxamide] | 0.4
Cc1ccc(C#N)c([C@]2(C)C[C@H](NC(=O)c3cn([C@@H](C)c4cnc(N5C[C@H]6C[C@H]6C5=O)c(C)c4C)nn3)C2)c1 [Example 143, N-((cis)-3-(2-cyano-5-methylphenyl)-3-methylcyclobutyl)-1-((S)-1-(4,5-dimethyl-6-((1R,5S)-2-oxo-3-azabicyclo[3.1.0]hexan-3-yl)pyridin-3-yl)ethyl)-1H-1,2,3-triazole-4-carboxamide] | 0.2
Cc1cc(N2C[C@H]3C[C@H]3C2=O)ncc1[C@H](C)n1cc(C(=O)N[C@H]2C[C@@](C)(c3cc(Cl)ccc3C(N)=O)C2)nn1 [Example 144, N-((cis)-3-(2-carbamoyl-5-chlorophenyl)-3-methylcyclobutyl)-1-((S)-1-(4-methyl-6-((1R,5S)-2-oxo-3-azabicyclo[3.1.0]hexan-3-yl)pyridin-3-yl)ethyl)-1H-1,2,3-triazole-4-carboxamide] | 1
[2H][C@]1(c2cc(Cl)ccc2C#N)C[C@@H](NC(=O)c2cn([C@@H](C)c3cnc(N4C[C@H]5C[C@H]5C4=O)cc3C)nn2)C1 [Example 147, N-((cis)-3-(5-chloro-2-cyanophenyl)cyclobutyl-3-d)-1-((S)-1-(4-methyl-6-((1R,5S)-2-oxo-3-azabicyclo[3.1.0]hexan-3-yl)pyridin-3-yl)ethyl)-1H-1,2,3-triazole-4-carboxamide] | 0.6
[2H][C@]1(NC(=O)c2cn([C@@H](C)c3cnc(N4C[C@H]5C[C@H]5C4=O)cc3C)nn2)C[C@@H](c2cc(Cl)ccc2C#N)C1 [Example 148, N-((cis)-3-(5-chloro-2-cyanophenyl)cyclobutyl-1-d)-1-((S)-1-(4-methyl-6-((1R,5S)-2-oxo-3-azabicyclo[3.1.0]hexan-3-yl)pyridin-3-yl)ethyl)-1H-1,2,3-triazole-4-carboxamide] | 0.6
